Where a name gives a salt, the structure may show the parent alone. Read-outs that look alike come from different tables or passages of the source.
What was measured:
[1] = molecular target: 5-HT2C receptor (Homo sapiens, UniProt P28335); conditions: MTA = Missed 50% of threshold inhibition; Ki without SEM within 20% of mean
[2] = molecular target: 5-HT2B receptor (Homo sapiens, UniProt P41595); conditions: MTA = Missed 50% of threshold inhibition; Ki without SEM within 20% of mean
[3] = molecular target: SERT (Homo sapiens, UniProt P31645); conditions: MTA = Missed 50% of threshold inhibition; Ki without SEM within 20% of mean
Chain of SERT (P31645 whole entry, species assumed): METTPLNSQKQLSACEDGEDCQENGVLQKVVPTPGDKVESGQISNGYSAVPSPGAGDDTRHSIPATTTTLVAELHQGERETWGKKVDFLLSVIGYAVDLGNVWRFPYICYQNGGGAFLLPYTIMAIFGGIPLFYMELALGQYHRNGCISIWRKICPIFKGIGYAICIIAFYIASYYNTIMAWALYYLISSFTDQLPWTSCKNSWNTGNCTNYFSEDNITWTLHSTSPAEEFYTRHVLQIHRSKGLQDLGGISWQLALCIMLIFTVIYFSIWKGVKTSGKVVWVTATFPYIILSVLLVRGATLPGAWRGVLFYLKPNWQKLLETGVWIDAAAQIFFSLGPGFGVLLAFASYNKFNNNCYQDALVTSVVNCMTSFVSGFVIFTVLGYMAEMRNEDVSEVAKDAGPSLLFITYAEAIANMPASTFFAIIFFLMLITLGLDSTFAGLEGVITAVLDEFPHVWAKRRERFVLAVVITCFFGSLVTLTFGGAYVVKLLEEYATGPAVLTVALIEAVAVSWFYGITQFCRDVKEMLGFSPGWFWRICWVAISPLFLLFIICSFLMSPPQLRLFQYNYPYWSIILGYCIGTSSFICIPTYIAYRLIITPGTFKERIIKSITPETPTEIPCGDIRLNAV

[4] = molecular target: 5-HT7 receptor (Homo sapiens, UniProt P34969)
Chain of 5-HT7 receptor (P34969 whole entry): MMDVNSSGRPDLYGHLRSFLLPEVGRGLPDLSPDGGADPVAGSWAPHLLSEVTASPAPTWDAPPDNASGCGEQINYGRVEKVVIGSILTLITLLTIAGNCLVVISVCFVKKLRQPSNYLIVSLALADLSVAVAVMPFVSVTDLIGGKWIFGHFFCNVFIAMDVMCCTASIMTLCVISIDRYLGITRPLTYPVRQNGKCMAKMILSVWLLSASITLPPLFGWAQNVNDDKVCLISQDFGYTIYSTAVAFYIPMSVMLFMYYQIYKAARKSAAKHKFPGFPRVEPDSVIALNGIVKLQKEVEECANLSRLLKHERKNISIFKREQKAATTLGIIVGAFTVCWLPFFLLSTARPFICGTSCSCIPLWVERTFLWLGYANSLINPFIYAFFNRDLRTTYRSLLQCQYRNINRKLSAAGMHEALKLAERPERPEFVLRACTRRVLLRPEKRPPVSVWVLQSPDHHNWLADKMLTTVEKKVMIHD

[5] = molecular target: 5-HT1A receptor (Homo sapiens, UniProt P08908)
Chain of 5-HT1A receptor (P08908 whole entry): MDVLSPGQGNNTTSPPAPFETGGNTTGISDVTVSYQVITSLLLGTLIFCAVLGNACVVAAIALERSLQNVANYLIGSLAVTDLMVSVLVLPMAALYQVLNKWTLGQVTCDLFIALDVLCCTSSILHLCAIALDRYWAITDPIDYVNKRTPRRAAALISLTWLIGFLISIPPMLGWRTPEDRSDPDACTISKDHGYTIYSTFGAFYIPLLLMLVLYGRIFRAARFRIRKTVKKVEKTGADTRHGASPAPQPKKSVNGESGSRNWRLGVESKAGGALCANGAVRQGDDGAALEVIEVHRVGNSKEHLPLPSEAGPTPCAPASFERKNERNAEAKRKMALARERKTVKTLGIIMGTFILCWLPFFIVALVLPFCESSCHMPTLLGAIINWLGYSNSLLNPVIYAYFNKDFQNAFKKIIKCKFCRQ

[6] = molecular target: histamine H1 receptor (Homo sapiens, UniProt P35367); conditions: MTA = Missed 50% of threshold inhibition; Ki without SEM within 20% of mean
Chain of histamine H1 receptor (P35367 whole entry, species assumed): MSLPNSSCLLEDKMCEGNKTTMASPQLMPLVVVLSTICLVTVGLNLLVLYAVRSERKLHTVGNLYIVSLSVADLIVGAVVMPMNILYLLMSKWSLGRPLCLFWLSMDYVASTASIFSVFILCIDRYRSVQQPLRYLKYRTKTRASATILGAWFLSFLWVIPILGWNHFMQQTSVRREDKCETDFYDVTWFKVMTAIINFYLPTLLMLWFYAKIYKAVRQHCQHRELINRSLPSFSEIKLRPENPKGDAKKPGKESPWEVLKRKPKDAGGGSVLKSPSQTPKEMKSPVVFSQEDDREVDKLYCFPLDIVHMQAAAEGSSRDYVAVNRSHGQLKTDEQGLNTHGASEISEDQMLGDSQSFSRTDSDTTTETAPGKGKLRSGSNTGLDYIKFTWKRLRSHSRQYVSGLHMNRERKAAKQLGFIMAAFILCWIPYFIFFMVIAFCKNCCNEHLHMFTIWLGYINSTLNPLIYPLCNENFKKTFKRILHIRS

[7] = molecular target: 5-HT2A receptor (Homo sapiens, UniProt P28223)
Chain of 5-HT2A receptor (P28223 whole entry): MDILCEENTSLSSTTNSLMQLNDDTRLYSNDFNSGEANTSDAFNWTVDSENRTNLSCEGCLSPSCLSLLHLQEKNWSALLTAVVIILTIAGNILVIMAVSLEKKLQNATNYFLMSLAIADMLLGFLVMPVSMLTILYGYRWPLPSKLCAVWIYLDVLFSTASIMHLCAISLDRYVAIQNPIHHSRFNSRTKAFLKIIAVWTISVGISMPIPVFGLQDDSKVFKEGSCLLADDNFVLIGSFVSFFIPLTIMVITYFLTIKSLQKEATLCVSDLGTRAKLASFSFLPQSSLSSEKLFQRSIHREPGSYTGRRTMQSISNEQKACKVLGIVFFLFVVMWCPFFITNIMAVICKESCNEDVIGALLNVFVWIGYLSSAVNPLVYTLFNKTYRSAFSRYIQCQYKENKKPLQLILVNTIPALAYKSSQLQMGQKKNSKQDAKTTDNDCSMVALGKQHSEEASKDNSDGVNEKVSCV

[8] = molecular target: D3 receptor (Homo sapiens, UniProt P35462); conditions: MTA = Missed 50% of threshold inhibition; Ki without SEM within 20% of mean
Chain of D3 receptor (P35462 whole entry): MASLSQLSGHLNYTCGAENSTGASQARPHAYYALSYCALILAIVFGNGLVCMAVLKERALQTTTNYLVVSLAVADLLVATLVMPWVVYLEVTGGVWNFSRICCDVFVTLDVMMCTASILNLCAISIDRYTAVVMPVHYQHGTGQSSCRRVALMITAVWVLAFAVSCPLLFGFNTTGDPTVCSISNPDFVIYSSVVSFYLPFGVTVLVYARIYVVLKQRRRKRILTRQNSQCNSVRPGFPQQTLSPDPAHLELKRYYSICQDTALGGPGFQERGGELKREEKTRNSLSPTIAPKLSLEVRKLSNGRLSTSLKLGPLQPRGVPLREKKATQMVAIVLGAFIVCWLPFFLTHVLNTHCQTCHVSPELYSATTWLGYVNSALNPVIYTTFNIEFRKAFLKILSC

[9] = molecular target: D2 receptor (Homo sapiens, UniProt P14416); conditions: MTA = Missed 50% of threshold inhibition; Ki without SEM within 20% of mean
Chain of D2 receptor (P14416 whole entry): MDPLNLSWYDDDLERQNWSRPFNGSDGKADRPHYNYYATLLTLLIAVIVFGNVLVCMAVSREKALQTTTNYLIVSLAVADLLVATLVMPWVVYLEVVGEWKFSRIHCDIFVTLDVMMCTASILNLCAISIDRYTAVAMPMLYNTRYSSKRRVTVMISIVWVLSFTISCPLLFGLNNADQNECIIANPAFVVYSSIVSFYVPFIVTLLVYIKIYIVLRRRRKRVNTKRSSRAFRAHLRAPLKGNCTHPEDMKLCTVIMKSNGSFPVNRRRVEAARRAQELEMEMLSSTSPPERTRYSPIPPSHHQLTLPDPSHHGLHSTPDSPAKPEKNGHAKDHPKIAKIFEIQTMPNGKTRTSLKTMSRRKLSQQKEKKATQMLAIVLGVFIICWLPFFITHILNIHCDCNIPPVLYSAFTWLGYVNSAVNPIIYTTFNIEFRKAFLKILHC

[10] = MTA = Missed 50% of threshold inhibition, Ki without SEM within 20% of mean

Chain of 5-HT2B receptor (P41595 whole entry): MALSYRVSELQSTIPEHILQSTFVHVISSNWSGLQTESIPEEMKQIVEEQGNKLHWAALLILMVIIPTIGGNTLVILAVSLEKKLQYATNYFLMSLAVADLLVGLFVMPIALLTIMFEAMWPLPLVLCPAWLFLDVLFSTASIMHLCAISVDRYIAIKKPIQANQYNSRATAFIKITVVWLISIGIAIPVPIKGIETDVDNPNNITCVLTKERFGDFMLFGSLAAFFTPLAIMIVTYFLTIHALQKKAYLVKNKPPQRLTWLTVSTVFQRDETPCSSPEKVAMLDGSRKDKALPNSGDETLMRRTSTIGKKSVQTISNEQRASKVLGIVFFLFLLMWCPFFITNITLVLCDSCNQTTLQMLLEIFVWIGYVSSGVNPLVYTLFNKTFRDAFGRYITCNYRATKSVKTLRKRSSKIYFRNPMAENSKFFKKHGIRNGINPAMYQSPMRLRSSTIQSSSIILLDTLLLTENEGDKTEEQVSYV
Chain of 5-HT2C receptor (P28335 33-458): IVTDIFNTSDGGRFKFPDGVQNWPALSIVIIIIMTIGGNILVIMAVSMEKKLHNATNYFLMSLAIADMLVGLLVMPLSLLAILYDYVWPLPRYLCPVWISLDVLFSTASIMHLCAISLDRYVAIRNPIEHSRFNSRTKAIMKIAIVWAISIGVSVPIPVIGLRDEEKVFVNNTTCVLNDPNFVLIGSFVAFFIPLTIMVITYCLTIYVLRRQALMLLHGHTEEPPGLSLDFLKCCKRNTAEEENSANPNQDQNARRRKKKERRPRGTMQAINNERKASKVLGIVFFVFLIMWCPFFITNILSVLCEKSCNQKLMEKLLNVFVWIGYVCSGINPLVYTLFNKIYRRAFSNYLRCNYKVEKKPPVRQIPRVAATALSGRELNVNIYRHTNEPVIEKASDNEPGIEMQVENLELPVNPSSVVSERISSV

| Ki 5-HT2C [1] | Ki 5-HT2B [2] | Ki SERT [3] | Structure (SMILES) | further results |
| --- | --- | --- | --- | --- |
| MTA | – | – | Cl.Fc1ccc2c(c1)CC(CCN1CCc3ccccc3C1)C2 (centres unmarked) [Compound 5, 2-(2-(5-Fluoro-2,3-dihydro-1H-inden-2-yl)ethyl)-1,2,3,4-tetrahydroisoquinoline hydrochloride] | – |
| MTA | – | MTA | Cl.Fc1ccc(OCCCN2CCc3ccccc3C2)cc1 [Compound 7, 2-(3-(4-Fluorophenoxy)propyl)-1,2,3,4-tetrahydroisoquinoline hydrochloride] | – |
| – | – | MTA | O=C(CCCN1CCc2ccccc2C1)c1ccc(F)cc1 [Compound 10, 4-(3,4-Dihydroisoquinolin-2(1H)-yl)-1-(4-fluorophenyl)butan-1-one] | increase in binding affinity at the 5-HT1AR ([5]; relative to compound 9): 3 fold |
| MTA | – | – | O=C(CCCN1CCc2ccccc2C1)c1ccc(O)cc1 [Compound 15, 4-(3,4-Dihydroisoquinolin-2(1H)-yl)-1-(4-hydroxyphenyl)butan-1-one hydrochloride] | – |
| MTA | – | MTA | Cl.[O-][S+](CCCN1CCc2ccccc2C1)c1ccc(F)cc1 (centres unmarked) [Compound 9, 2-(3-((4-Fluorophenyl)sulfinyl)propyl)-1,2,3,4-tetrahydroisoquinoline hydrochloride] | – |
| – | – | MTA | Cl.Fc1ccc(SCCCN2CCc3ccccc3C2)cc1 [Compound 8, 2-(3-((4-Fluorophenyl)thio)propyl)-1,2,3,4-tetrahydroisoquinoline hydrochloride] | – |

Continued, compound first:

| Structure (SMILES) | Ki 5-HT2C [1] | Ki 5-HT2B [2] | Ki SERT [3] | further results |
| --- | --- | --- | --- | --- |
| c1ccc2c(c1)CCN(CCCCc1c[nH]c3ccccc13)C2 [Compound 4, 2-(4-(1H-indol-3-yl)butyl)-1,2,3,4-tetrahydroisoquinoline] | MTA | MTA | – | – |
| O=C1c2ccccc2C(=O)N1CCCCN1CCC2CCCCC2C1 (centres unmarked) [Compound 2, 2-(4-(Octahydroisoquinolin-2(1H)-yl)butyl)isoindoline-1,3-dione] | – | – | – | decrease in binding affinity to the 5-HT7R ([4]; relative to compound 1): ~40 fold |
| O=C1c2ccccc2C(=O)N1CCCCN1Cc2ccccc2C1 [Compound 3, 2-(4-(Isoindolin-2-yl)butyl)isoindoline-1,3-dione] | – | MTA | MTA | Ki 5-HT7 [4, 10]: MTA; Ki H1 [6]: MTA; Ki 5-HT2A [7, 10]: MTA; Ki D3 [8]: MTA; Ki 5-HT1A [5, 10]: MTA; Ki D2 [9]: MTA |
| O=C1c2ccccc2C(=O)N1CCCCN1CCc2ccccc2C1 [Compound 1, 2-(4-(3,4-Dihydroisoquinolin-2(1H)-yl)butyl)isoindoline-1,3-dione] | MTA | MTA | MTA | Ki H1 [6]: MTA; Ki 5-HT2A [7]: MTA; Ki D2 [9]: MTA |

Reference: publication PMC5060005 (Bioorganic & medicinal chemistry, 2016)
